Experimental data reported in patent publication US8575103B2, “Peptides and methods for inhibiting G alpha protein signaling” (The Board of Trustees of the University of Illinois, priority 2009, dated 2013).
“Also recorded” adds a separate entry of the source. Where no end group is shown, it is not given here.

Key:
CD1 mice = experiment: bleeding time in mice after intravenous administration; type: in vivo; conditions: 100 μl of 3.7 mM intravenously via tail vein, tail cut five minutes after administration
Experimental: Briefly, CD1 mice (25 grams) were anesthetized with sodium pentobarbital, and either 100 μl of vehicle or 100 μl of a vehicle solution containing 3.7 mM of each peptide or aspirin was administered intravenously via the tail vein. Five minutes following administration, the tail was cut 0.5 cm from the tip and immersed in PBS buffer (pH 7.4; 37EC). Cessation of bleeding was observed visually and the total bleeding time was recorded.

RhoA = RhoA activation in platelets; type: cell-based, human; conditions: 250 μM peptide; induced by TRAP1 (10 μM), U46619 (0.5 μM) or ADP (10 μM)
Experimental: (§1) To further investigate the mechanism(s) by which G13SR2pep (SEQ ID NO:5) inhibited α11bβ3 integrin activation, the effect of G13SR2pep on calcium flux, RhoA activation, Src activation and changes in cAMP levels was determined using conventional assays.

α11bβ3 integrin [1] = experiment: platelet α11bβ3 integrin activation, FITC-PAC1 antibody binding by flow cytometry; type: cell-based, human; conditions: 150 μM peptide, 0.5 μM U46619, FITC-PAC1, compared to 500 μM Random Peptide
Experimental: The platelet count in human PRP was adjusted to 1×10^6 platelets/ml. The platelets were then labeled with FITC-conjugated PAC1 antibody against activated α11bβ3 integrin, and the samples were analyzed by flow cytometry in a Beckman Coulter CyAn II Flow Cytometer. Trace (a) depicts resting platelets labeled with FITC-PAC-1 antibody. Trace (b) depicts platelets stimulated with 0.5 μM U46619 and labeled with FITC-PAC1 antibody. Trace (c) depicts platelets incubated with 500 μM of the Random Peptide (SEQ ID NO:9), followed by 0.5 μM U46619 stimulation and FITC-PAC1 labeling. Trace (d) depicts platelets incubated with 150 μM of the G13SR2pep, followed by 0.5 μM U46619 stimulation and FITC-PAC1 labeling.
Subsequent experiments examined the effect of G13SR2pep, (SEQ ID NO:5) on human platelet α11bβ3 integrin activation as measured by FITC-PAC-1 antibody binding.

kindlin-3 = molecular target: T1, kindlin-3 (Homo sapiens, UniProt Q86UX7); experiment: peptide affinity column with solubilized human platelets, western blot for kindlin-3; type: binding; conditions: immunoblot, kindlin 3 (72 kD)
T1 construct: also purified whole talin (220 kD), the talin head domain (47 kD) and kindlin 3 (72 kD); endogenous in cells; host or cells: solubilized human platelets
Text: (§2) On this basis, subsequent experiments examined whether G13SR2pep peptide (SEQ ID NO:5) does indeed directly interact with α11bβ3 and/or one of its associated proteins in human platelets. In this respect, platelet α11bβ3 integrin is known to exist in a complex with two cytoplasmic proteins, i.e., talin and kindlin-3 (Tadokoro, et al. (2003) Science 302:103-6; Moser, et al. (2008) Nature Med. 14:325-30). To determine whether G13SR2pep, (SEQ ID NO:5) interacts with any of these proteins (or with the entire α11bβ3, talin, kindlin-3 complex), peptide affinity columns using G13SR2pep (SEQ ID NO:5) were employed. The affinity purified protein(s) from solubilized human platelets that specifically bound to the G13SR2pep peptide were eluted, and analyzed by western blot for α11bβ3 integrin, talin and kindlin-3. In similar experiments, the eluates from a peptide column using the G13SR2-Random Peptide (SEQ ID NO:9) were also analyzed. Immunoblot analysis with the α11bβ3 antibodies (Abcam) detected two bands, one at 130 kD and the other at 115 kD in solubilized human platelets as well as in the elution fraction obtained from the G13SR2pep (SEQ ID NO:5) affinity column. […] This was supported by similar experiments using talin antibodies and the kindlin 3 antibody (Abcam).

cAMP levels = cAMP levels in human platelet-rich plasma; type: cell-based; conditions: 250 μM peptide
Experimental: as §1

talin = molecular target: T2, talin (Homo sapiens, UniProt Q9Y490); experiment: peptide affinity column with solubilized human platelets, western blot for talin; type: binding
T2 construct: also purified whole talin (220 kD), the talin head domain (47 kD) and kindlin 3 (72 kD); endogenous in cells; host or cells: solubilized human platelets
Text: as §2
Thus, the binding of G13SR2pep (SEQ ID NO:5) to the talin head domain serves as the basis for the ability of G13SR2pep to inhibit α11bβ3 integrin activation and platelet aggregation. As such, peptides or specific compounds fashioned to mimic or modify the switch region interaction with talin, α11bβ3 integrin or other α11bβ3 integrin-associated proteins would have profound effects on thrombosis and other integrin-linked disease processes.

Src = Src activation in platelets; type: cell-based, human; conditions: 250 μM peptide; induced by TRAP1 (10 μM), U46619 (0.5 μM) or ADP (10 μM)
Experimental: as §1

α11bβ3 integrin [2] = molecular target: T3, α11bβ3 integrin (Homo sapiens, UniProt P05106+P08514+Q9Y490); experiment: peptide affinity column with solubilized human platelets, western blot for α11bβ3; type: binding; conditions: immunoblot, bands at 130 kD and 115 kD
T3 construct: detected two bands, one at 130 kD and the other at 115 kD in solubilized human platelets; endogenous in cells; host or cells: solubilized human platelets
Text: as §2

calcium mobilization = experiment: calcium flux / calcium mobilization in platelets; type: cell-based, human; conditions: 250 μM peptide; induced by TRAP1 (10 μM), U46619 (0.5 μM) or ADP (10 μM)
Experimental: as §1

human platelets = experiment: human platelet aggregation in platelet rich plasma (PRP); type: cell-based; conditions: PRP

T2 sequence (Q9Y490 1-433): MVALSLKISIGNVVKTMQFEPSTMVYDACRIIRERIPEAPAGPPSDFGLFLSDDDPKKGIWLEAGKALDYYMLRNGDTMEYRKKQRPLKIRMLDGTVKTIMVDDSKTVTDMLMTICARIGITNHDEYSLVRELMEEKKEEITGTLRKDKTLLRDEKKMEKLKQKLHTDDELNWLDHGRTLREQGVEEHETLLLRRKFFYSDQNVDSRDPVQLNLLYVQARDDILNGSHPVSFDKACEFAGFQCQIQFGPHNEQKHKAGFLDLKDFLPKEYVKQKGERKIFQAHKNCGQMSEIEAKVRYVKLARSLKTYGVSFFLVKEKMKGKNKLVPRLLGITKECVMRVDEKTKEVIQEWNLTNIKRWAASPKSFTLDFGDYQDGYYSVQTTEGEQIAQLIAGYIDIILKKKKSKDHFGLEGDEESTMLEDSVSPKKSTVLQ

## VGGQRSERKRWFECFDS [G13SR2pep, non-myristoylated G13 Switch Region 2 peptide]
CD1 mice
  bleeding time: increased bleeding times; also recorded: substantially increases
RhoA
  RhoA activation: did not alter
α11bβ3 integrin [1]
  inhibition of U46619-mediated activation of α11bβ3 integrin: dramatically inhibited
kindlin-3
  kindlin 3 in affinity column eluate: purified
cAMP levels
  cAMP levels: did not alter
talin; solubilized human platelets, immunoblot, whole talin (220 kD), talin head domain (47 kD)
  talin in affinity column eluate: purified
talin; α11bβ3-talin-kindlin 3 complex dissociated, affinity column eluates
  binding to talin head domain: binding partner
Src
  Src activation: did not alter
α11bβ3 integrin [2]
  α11bβ3 in affinity column eluate (interaction with peptide): directly interacts
Calcium mobilization
  calcium mobilization: did not alter
Human platelets; 150 μM peptide, 10 μM A23187
  platelet aggregation induced by the divalent cation ionophore A23187: capable of blocking
Human platelets; 75-150 μM G13SR2pep (Random Peptide 500 μM), 0.5 μM U46619
  inhibition of human platelet aggregation stimulated by U46619: dose-dependent inhibition
Human platelets; 75-150 μM G13SR2pep (Random Peptide 500 μM), 10 μM ADP
  inhibition of human platelet aggregation stimulated by ADP: dose-dependent inhibition
Human platelets; 75-150 μM G13SR2pep (Random Peptide 500 μM), 15 μM TRAP1
  inhibition of human platelet aggregation stimulated by TRAP1: dose-dependent inhibition
Human platelets; 75-150 μM G13SR2pep (Random Peptide 500 μM), 50 μM TRAP4
  inhibition of human platelet aggregation stimulated by TRAP4: dose-dependent inhibition
